Results reported in patent US7994140B2, “Classes of compounds that interact with GPCRs” (Alchemia Limited, priority 2002, dated 2011).

Key:
SST5 = biological target: T1, SST5 (Homo sapiens, UniProt P35346); test: GPCR radioligand binding (RLB) assay, somatostatin SST5, [125I]SST-14; settings: 10 micromolar compound; recombinant human receptor membranes (HEK 293)
T1 construct: purchased Perkin Elmer BioSignal; host or cells: HEK 293
Procedure, shortened: (§1)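 Membranes from HEK 293 cells expressing the recombinant human receptor were equilibrated with [125I]SST-14 (SST5) or [125I]NDP-αMSH (MC4), then compound added for an optimized incubation. Bound ligand separated by filtration on PEI-coated glass fiber and counted by liquid scintillation.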

MC4 = biological target: T2, MC4 (Homo sapiens, UniProt P32245); test: GPCR radioligand binding (RLB) assay, melanocortin MC4, [125I]NDP-αMSH; settings: 10 micromolar compound; recombinant human receptor membranes (HEK 293)
T2 construct: purchased Perkin Elmer BioSignal; host or cells: HEK 293
Procedure, shortened: as §1

T2 sequence (P32245 whole entry): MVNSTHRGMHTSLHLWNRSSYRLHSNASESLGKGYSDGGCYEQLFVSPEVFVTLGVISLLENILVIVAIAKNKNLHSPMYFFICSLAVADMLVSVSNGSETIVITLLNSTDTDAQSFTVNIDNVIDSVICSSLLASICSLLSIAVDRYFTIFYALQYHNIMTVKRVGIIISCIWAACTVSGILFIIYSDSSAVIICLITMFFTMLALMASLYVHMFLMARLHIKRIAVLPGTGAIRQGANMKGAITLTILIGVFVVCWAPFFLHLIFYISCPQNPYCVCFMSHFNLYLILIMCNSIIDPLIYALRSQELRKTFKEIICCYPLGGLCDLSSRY
T1 sequence (P35346 whole entry): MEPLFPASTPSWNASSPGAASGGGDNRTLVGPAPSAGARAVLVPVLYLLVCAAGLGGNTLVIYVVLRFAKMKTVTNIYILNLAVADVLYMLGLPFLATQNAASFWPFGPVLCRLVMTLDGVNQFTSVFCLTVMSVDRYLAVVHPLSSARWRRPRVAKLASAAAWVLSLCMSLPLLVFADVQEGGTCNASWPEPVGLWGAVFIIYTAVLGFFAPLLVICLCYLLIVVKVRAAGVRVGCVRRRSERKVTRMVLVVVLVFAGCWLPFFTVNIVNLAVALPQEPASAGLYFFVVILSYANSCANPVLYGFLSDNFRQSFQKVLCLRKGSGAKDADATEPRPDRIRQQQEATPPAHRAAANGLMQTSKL

COC[C@H]1OC(OCCc2ccccc2)[C@H](NC(=O)CCCNC(=N)N)[C@@H](OCc2ccc(-c3ccccc3)cc2)[C@@H]1O (stereo partly drawn) [Compound 49]
SST5 inhibition at 10 micromolar (SST5): + (Indicates inhibition greater than . . . 50%) | MC4 inhibition at 10 micromolar (MC4): + (Indicates inhibition greater than . . . 50%)

COC[C@H]1OC(OCc2ccc(-c3ccccc3)cc2)[C@H](NC(=O)CCCN)[C@@H](OCc2ccc(-c3ccccc3)cc2)[C@@H]1O (stereo partly drawn) [Compound 53]
SST5 inhibition at 10 micromolar (SST5): + (Indicates inhibition greater than . . . 50%) | MC4 inhibition at 10 micromolar (MC4): + (Indicates inhibition greater than . . . 50%)

CO[C@H]1[C@H](O)[C@@H](COCc2ccc(-c3ccccc3)cc2)OC(OCc2ccc(-c3ccccc3)cc2)[C@@H]1NC(=O)CNC(=N)N (stereo partly drawn) [Compound 56]
SST5 inhibition at 10 micromolar (SST5): + (Indicates inhibition greater than . . . 50%) | MC4 inhibition at 10 micromolar (MC4): + (Indicates inhibition greater than . . . 50%)

CO[C@H]1[C@H](O)[C@@H](COCc2ccc(-c3ccccc3)cc2)OC(OCc2ccc(-c3ccccc3)cc2)[C@@H]1NC(=O)CCNC(=N)N (stereo partly drawn) [Compound 57]
SST5 inhibition at 10 micromolar (SST5): + (Indicates inhibition greater than . . . 50%) | MC4 inhibition at 10 micromolar (MC4): + (Indicates inhibition greater than . . . 50%)

COC1C(O)C(COCc2ccc3ccccc3c2)OC(OCc2ccc(-c3ccccc3)cc2)C1NC(=O)CCCN (stereo not drawn) [Compound 61]
SST5 inhibition at 10 micromolar (SST5): + (Indicates inhibition greater than . . . 50%) | MC4 inhibition at 10 micromolar (MC4): + (Indicates inhibition greater than . . . 50%)

COC1C(O)C(COCc2ccc(-c3ccccc3)cc2)OC(OCc2ccc3ccccc3c2)C1NC(=O)CCCN (stereo not drawn) [Compound 69]
SST5 inhibition at 10 micromolar (SST5): + (Indicates inhibition greater than . . . 50%) | MC4 inhibition at 10 micromolar (MC4): + (Indicates inhibition greater than . . . 50%)

COC1C(O)C(COCc2ccc3ccccc3c2)OC(OCc2ccc3ccccc3c2)C1NC(=O)CCCN (stereo not drawn) [Compound 73]
SST5 inhibition at 10 micromolar (SST5): + (Indicates inhibition greater than . . . 50%) | MC4 inhibition at 10 micromolar (MC4): + (Indicates inhibition greater than . . . 50%)

COC1C(O)C(COCc2ccc(Cl)cc2)OC(OCc2ccc3ccccc3c2)C1NC(=O)CCCN (stereo not drawn) [Compound 77]
SST5 inhibition at 10 micromolar (SST5): + (Indicates inhibition greater than . . . 50%) | MC4 inhibition at 10 micromolar (MC4): + (Indicates inhibition greater than . . . 50%)

COC1C(O)C(COCc2ccc3ccccc3c2)OC(OCc2ccccc2)C1NC(=O)CNC(=N)N (stereo not drawn) [Compound 80]
SST5 inhibition at 10 micromolar (SST5): + (Indicates inhibition greater than . . . 50%) | MC4 inhibition at 10 micromolar (MC4): + (Indicates inhibition greater than . . . 50%)

COC1C(O)C(COCc2ccc(-c3ccccc3)cc2)OC(OCc2ccc(Cl)cc2)C1NC(=O)CCNC(=N)N (stereo not drawn) [Compound 84]
SST5 inhibition at 10 micromolar (SST5): + (Indicates inhibition greater than . . . 50%) | MC4 inhibition at 10 micromolar (MC4): + (Indicates inhibition greater than . . . 50%)

COC1C(O)C(COCc2ccc(-c3ccccc3)cc2)OC(OCc2ccc(Cl)cc2)C1NC(=O)CCCNC(=N)N (stereo not drawn) [Compound 86]
SST5 inhibition at 10 micromolar (SST5): + (Indicates inhibition greater than . . . 50%) | MC4 inhibition at 10 micromolar (MC4): + (Indicates inhibition greater than . . . 50%)

COC1C(O)C(COCc2ccc3ccccc3c2)OC(OCc2ccc(Cl)cc2)C1NC(=O)CNC(=N)N (stereo not drawn) [Compound 87]
SST5 inhibition at 10 micromolar (SST5): + (Indicates inhibition greater than . . . 50%) | MC4 inhibition at 10 micromolar (MC4): + (Indicates inhibition greater than . . . 50%)

COC1C(O)C(COCc2ccc3ccccc3c2)OC(OCc2ccc(Cl)cc2)C1NC(=O)CCNC(=N)N (stereo not drawn) [Compound 88]
SST5 inhibition at 10 micromolar (SST5): + (Indicates inhibition greater than . . . 50%) | MC4 inhibition at 10 micromolar (MC4): + (Indicates inhibition greater than . . . 50%)

COC1C(O)C(COCc2ccc3ccccc3c2)OC(OCc2ccc(Cl)cc2)C1NC(=O)CCCN (stereo not drawn) [Compound 89]
SST5 inhibition at 10 micromolar (SST5): + (Indicates inhibition greater than . . . 50%) | MC4 inhibition at 10 micromolar (MC4): + (Indicates inhibition greater than . . . 50%)

COC1C(O)C(COCc2ccc3ccccc3c2)OC(OCc2ccc(Cl)cc2)C1NC(=O)CCCNC(=N)N (stereo not drawn) [Compound 90]
SST5 inhibition at 10 micromolar (SST5): + (Indicates inhibition greater than . . . 50%) | MC4 inhibition at 10 micromolar (MC4): + (Indicates inhibition greater than . . . 50%)

CO[C@H]1[C@H](O)[C@@H](COCc2ccc(Cl)cc2)OC(OCc2ccc(Cl)cc2)[C@@H]1NC(=O)CCCN (stereo partly drawn) [Compound 94]
SST5 inhibition at 10 micromolar (SST5): + (Indicates inhibition greater than . . . 50%) | MC4 inhibition at 10 micromolar (MC4): + (Indicates inhibition greater than . . . 50%)

CO[C@H]1[C@H](O)[C@@H](COCc2ccc(-c3ccccc3)cc2)OC(OCCc2ccccc2)[C@@H]1NC(=O)CCCN (stereo partly drawn) [Compound 98]
SST5 inhibition at 10 micromolar (SST5): + (Indicates inhibition greater than . . . 50%) | MC4 inhibition at 10 micromolar (MC4): + (Indicates inhibition greater than . . . 50%)

CO[C@H]1[C@H](O)[C@@H](COCc2ccc3ccccc3c2)OC(OCCc2ccccc2)[C@@H]1NC(=O)CCCN (stereo partly drawn) [Compound 102]
SST5 inhibition at 10 micromolar (SST5): + (Indicates inhibition greater than . . . 50%) | MC4 inhibition at 10 micromolar (MC4): + (Indicates inhibition greater than . . . 50%)

CO[C@H]1[C@H](O)[C@@H](COCc2ccc3ccccc3c2)OC(OCCc2ccccc2)[C@@H]1NC(=O)CCCNC(=N)N (stereo partly drawn) [Compound 103]
SST5 inhibition at 10 micromolar (SST5): + (Indicates inhibition greater than . . . 50%) | MC4 inhibition at 10 micromolar (MC4): + (Indicates inhibition greater than . . . 50%)

CO[C@H]1[C@H](O)[C@@H](COCc2ccc(Cl)cc2)OC(OCCc2ccccc2)[C@@H]1NC(=O)CCCN (stereo partly drawn) [Compound 106]
SST5 inhibition at 10 micromolar (SST5): + (Indicates inhibition greater than . . . 50%) | MC4 inhibition at 10 micromolar (MC4): + (Indicates inhibition greater than . . . 50%)

CSC1OC(COCc2ccccc2)C(O)C(OCc2ccccc2)C1NC(=O)CNC(=N)N (stereo not drawn) [Compound 120]
SST5 inhibition at 10 micromolar (SST5): + (Indicates inhibition greater than . . . 50%) | MC4 inhibition at 10 micromolar (MC4): + (Indicates inhibition greater than . . . 50%)

CSC1OC(COCc2ccccc2)C(O)C(OCc2ccccc2)C1NC(=O)CCN (stereo not drawn) [Compound 121]
SST5 inhibition at 10 micromolar (SST5): + (Indicates inhibition greater than . . . 50%) | MC4 inhibition at 10 micromolar (MC4): + (Indicates inhibition greater than . . . 50%)

CSC1OC(COCc2ccccc2)C(O)C(OCc2ccccc2)C1NC(=O)CCNC(=N)N (stereo not drawn) [Compound 122]
SST5 inhibition at 10 micromolar (SST5): + (Indicates inhibition greater than . . . 50%) | MC4 inhibition at 10 micromolar (MC4): + (Indicates inhibition greater than . . . 50%)

CSC1OC(COCc2ccccc2)C(O)C(OCc2ccccc2)C1NC(=O)CCCNC(=N)N (stereo not drawn) [Compound 124]
SST5 inhibition at 10 micromolar (SST5): + (Indicates inhibition greater than . . . 50%) | MC4 inhibition at 10 micromolar (MC4): + (Indicates inhibition greater than . . . 50%)

CSC1OC(COCc2ccc(Cl)cc2)C(O)C(OCc2ccccc2)C1NC(=O)CNC(=N)N (stereo not drawn) [Compound 126]
SST5 inhibition at 10 micromolar (SST5): + (Indicates inhibition greater than . . . 50%) | MC4 inhibition at 10 micromolar (MC4): + (Indicates inhibition greater than . . . 50%)

CSC1OC(COCc2ccc(Cl)cc2)C(O)C(OCc2ccccc2)C1NC(=O)CCNC(=N)N (stereo not drawn) [Compound 128]
SST5 inhibition at 10 micromolar (SST5): + (Indicates inhibition greater than . . . 50%) | MC4 inhibition at 10 micromolar (MC4): + (Indicates inhibition greater than . . . 50%)

CSC1OC(COCc2ccc(Cl)cc2)C(O)C(OCc2ccccc2)C1NC(=O)CCCN (stereo not drawn) [Compound 129]
SST5 inhibition at 10 micromolar (SST5): + (Indicates inhibition greater than . . . 50%) | MC4 inhibition at 10 micromolar (MC4): + (Indicates inhibition greater than . . . 50%)

CSC1OC(COCc2ccc(Cl)cc2)C(O)C(OCc2ccccc2)C1NC(=O)CCCNC(=N)N (stereo not drawn) [Compound 130]
SST5 inhibition at 10 micromolar (SST5): + (Indicates inhibition greater than . . . 50%) | MC4 inhibition at 10 micromolar (MC4): + (Indicates inhibition greater than . . . 50%)

CSC1OC(COCc2ccc(-c3ccccc3)cc2)C(O)C(OCc2ccccc2)C1NC(=O)CNC(=N)N (stereo not drawn) [Compound 132]
SST5 inhibition at 10 micromolar (SST5): + (Indicates inhibition greater than . . . 50%) | MC4 inhibition at 10 micromolar (MC4): + (Indicates inhibition greater than . . . 50%)

CSC1OC(COCc2ccc(-c3ccccc3)cc2)C(O)C(OCc2ccccc2)C1NC(=O)CCN (stereo not drawn) [Compound 133]
SST5 inhibition at 10 micromolar (SST5): + (Indicates inhibition greater than . . . 50%) | MC4 inhibition at 10 micromolar (MC4): + (Indicates inhibition greater than . . . 50%)

CSC1OC(COCc2ccc(-c3ccccc3)cc2)C(O)C(OCc2ccccc2)C1NC(=O)CCNC(=N)N (stereo not drawn) [Compound 134]
SST5 inhibition at 10 micromolar (SST5): + (Indicates inhibition greater than . . . 50%) | MC4 inhibition at 10 micromolar (MC4): + (Indicates inhibition greater than . . . 50%)

CSC1OC(COCc2ccc(-c3ccccc3)cc2)C(O)C(OCc2ccccc2)C1NC(=O)CCCN (stereo not drawn) [Compound 135]
SST5 inhibition at 10 micromolar (SST5): + (Indicates inhibition greater than . . . 50%) | MC4 inhibition at 10 micromolar (MC4): + (Indicates inhibition greater than . . . 50%)

CSC1OC(COCc2ccc(-c3ccccc3)cc2)C(O)C(OCc2ccccc2)C1NC(=O)CCCNC(=N)N (stereo not drawn) [Compound 136]
SST5 inhibition at 10 micromolar (SST5): + (Indicates inhibition greater than . . . 50%) | MC4 inhibition at 10 micromolar (MC4): + (Indicates inhibition greater than . . . 50%)
